# Molecular target: T1, P2X4 receptor (Homo sapiens, UniProt Q99571)
# T1 construct: expressed in transfected cells; host or cells: 1321N1 astrocytoma cells, retroviral vector pQCXIN, G418 selection, monoclones
# T1 sequence (Q99571 1-388): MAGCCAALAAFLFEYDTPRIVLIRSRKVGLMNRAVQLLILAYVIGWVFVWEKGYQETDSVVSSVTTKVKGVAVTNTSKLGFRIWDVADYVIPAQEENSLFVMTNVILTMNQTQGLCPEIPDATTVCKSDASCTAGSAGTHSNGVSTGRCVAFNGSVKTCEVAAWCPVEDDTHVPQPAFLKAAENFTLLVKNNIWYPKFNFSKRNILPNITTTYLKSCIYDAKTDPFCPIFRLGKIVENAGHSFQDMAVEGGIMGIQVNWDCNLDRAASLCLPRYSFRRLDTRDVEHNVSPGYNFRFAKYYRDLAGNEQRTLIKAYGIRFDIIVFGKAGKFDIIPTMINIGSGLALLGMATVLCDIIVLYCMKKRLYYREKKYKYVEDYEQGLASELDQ
# Experiment: Measurement of Ca2+ influx in transfected 1321N1 astrocytoma cells (P2X4 inhibitory potency)
# Type: cell-based
# Conditions: agonist-mediated Ca2+ influx, FLUO-4, 1321N1 astrocytoma cells; antagonists added 30 min before agonist
# Description: The rat, mouse, and human P2X4 DNA, respectively, were cloned into the retroviral vector pQCXIN. 1321N1 Astrocytoma cells were transfected with the DNA using a retroviral system as described previously. In brief, GP+envAM12 packaging cells were first transiently co-transfected with a retroviral vector to generate the retrovirus and with a vesicular stomatitis virus G protein (VSV-G) to pseudotype the virus and to increase their infection efficiency. The viruses containing the rat, mouse or human P2X4 receptor sequence were then used to create a stable astrocytoma cell line. P2X4 receptor-expressing cells were selected with G418 ([…]).
# The selection of monoclones for rat and human P2X4 receptors was performed using the limited dilution method by plating the cells at very low cell densities (1 cell clone per well in 96-well plates). Cells were counted, and then several dilutions were made to obtain a concentration of […]. We subsequently added 100 µL of the diluted cell suspension into each well expecting to obtain on average 1 cell per well. After a few days the wells that contained single clones were labeled and transferred into 24 well plates. More than 20 clones were selected for each cell line and characterized in calcium influx assay.
# Measurement of Ca^2+ influx in transfected 1321N1 astrocytoma cells
# P2X receptor function was determined on the basis of agonist-mediated increases in cytosolic Ca^2+ concentration. The fluorescent Ca^2+chelating dye FLUO-4 was used as an indicator of the relative levels of intracellular Ca^2+ in a 96-well format using a fluorescence imaging plate reader (Novostar, BMG, Germany). Cells were grown to confluence in 96-well black-walled tissue culture plates and loaded with FLUO-4 AM ([…]) in Hank's balanced salt solution (HBSS, containing 10 mM HEPES, pH 7.3, and 1% Pluronic® F127) for 1 h at 23° C. After incubation, the loaded cells were washed with the same buffer to remove extracellular FLUO-4 AM. Compound solutions were prepared in HBSS (containing 20 mM HEPES, pH 7.3) or DMSO depending on their solubility. […] Fluorescence intensity was measured at 520 nm for 30 s at 0.4 s intervals. Buffer or test compounds were injected sequentially into separate wells using the automatic pipetting device. At least three independent experiments were performed in triplicate or duplicate. Antagonists were added 30 min before the addition of agonists. The assays were performed in a final volume of 200 μL. Compounds were tested at 7-8 different concentrations spanning three orders of magnitude of concentrations. Statistical significances were calculated using the unpaired two-tailed t-test.
row,IC50,Structure (SMILES)
1,70 to 99 nM,"Cc1nsc(-c2ccc(C)c(NCC(=O)N3CCc4c3cccc4N3CC(=O)NC3=O)c2)n1 [Example 54, 1-(1-((2-methyl-5-(3-methyl-1,2,4-thiadiazol-5-yl)phenyl)glycyl)indolin-4-yl) imidazolidine-2,4-dione]"
2,0.1 to 19 nM,"Cc1nsc(-c2ccc(C)c(NCC(=O)N3CCc4c3cccc4C3(O)COC3)c2)n1 [Example 55, 1-(4-(3-hydroxyoxetan-3-yl)indolin-1-yl)-2-((2-methyl-5-(3-methyl-1,2,4-thiadiazol-5-yl)phenyl)amino)ethan-1-one]"
3,0.1 to 19 nM,"Cc1nsc(-c2ccc(C)c(NCC(=O)N3CCc4c3cccc4C(C)(F)CO)c2)n1 (stereo not drawn) [Example 63, 1-(4-(2-fluoro-1-hydroxypropan-2-yl)indolin-1-yl)-2-((2-methyl-5-(3-methyl-1,2,4-thiadiazol-5-yl)phenyl)amino)ethan-1-one]"
4,0.1 to 19 nM,"Cc1nsc(-c2ccc(C)c(NCC(=O)N3CCc4c3cccc4[C@@](C)(O)CO)c2)n1 [Example 64, 1-(4-(1,2-dihydroxypropan-2-yl)indolin-1-yl)-2-((2-methyl-5-(3-methyl-1,2,4-thiadiazol-5-yl)phenyl)amino)ethan-1-one]"
5,0.1 to 19 nM,"Cc1nsc(-c2ccc(C)c(NCC(=O)N3CCc4c3cccc4[C@](C)(O)CO)c2)n1 [Example 65, 1-(4-(1,2-dihydroxypropan-2-yl)indolin-1-yl)-2-((2-methyl-5-(3-methyl-1,2,4-thiadiazol-5-yl)phenyl)amino)ethan-1-one]"
6,20 to 39 nM,"Cc1nsc(-c2ccc(C)c(NCC(=O)N3CCc4c(N5CCC(O)C5)cccc43)c2)n1 (stereo not drawn) [Example 68, 1-(4-(3-hydroxypyrrolidin-1-yl)indolin-1-yl)-2-((2-methyl-5-(3-methyl-1,2,4-thiadiazol-5-yl)phenyl)amino)ethan-1-one]"
7,> 100 nM,"Cc1nsc(-c2ccc(C)c(NCC(=O)N3CCc4c(CS(C)(=N)=O)cccc43)c2)n1 (stereo not drawn) [Example 69, imino(methyl)((1-((2-methyl-5-(3-methyl-1,2,4-thiadiazol-5-yl)phenyl)glycyl)indolin-4-yl)methyl)sulfanone]"
8,0.1 to 19 nM,"Cc1nsc(-c2ccc(C)c(NCC(=O)N3CCc4c(-c5cc[nH]n5)cccc43)c2)n1 [Example 70, 1-(4-(1H-pyrazol-3-yl)indolin-1-yl)-2-((2-methyl-5-(3-methyl-1,2,4-thiadiazol-5-yl)phenyl)amino)ethan-1-one]"
9,40 to 69 nM,"Cc1ccc(-c2ccc(C)c(NCC(=O)N3CCc4c(-c5c[nH]cn5)cccc43)c2)o1 [Example 73, 1-(4-(1H-imidazol-4-yl)indolin-1-yl)-2-((2-methyl-5-(5-methylfuran-2-yl)phenyl)amino)ethan-1-one]"
10,20 to 39 nM,"Cc1nsc(-c2ccc(C)c(NCC(=O)N3CCc4c(N)cccc43)c2)n1 [Example 74, 1-(4-aminoindolin-1-yl)-2-((2-methyl-5-(3-methyl-1,2,4-thiadiazol-5-yl)phenyl)amino)ethan-1-one]"
11,70 to 99 nM,"Cc1noc(-c2ccc(F)c(NCC(=O)N3CCc4c(N)cccc43)c2)n1 [Example 75, 1-(4-aminoindolin-1-yl)-2-((2-fluoro-5-(3-methyl-1,2,4-oxadiazol-5-yl)phenyl)-amino)ethan-1-one]"
12,0.1 to 19 nM,"CC(=O)Nc1cccc2c1CCN2C(=O)CNc1cc(-c2nc(C)ns2)ccc1C [Example 76, N-(1-((2-methyl-5-(3-methyl-1,2,4-thiadiazol-5-yl)phenyl)-glycyl)indolin-4-yl) acetamide]"
13,20 to 39 nM,"CC(=O)N(c1cccc2c1CCN2C(=O)CNc1cc(-c2nc(C)ns2)ccc1C)S(C)(=O)=O [Example 77, N-(1-((2-methyl-5-(3-methyl-1,2,4-thiadiazol-5-yl)phenyl)-glycyl)indolin-4-yl)-N-(methylsulfonyl)acetamide]"
14,0.1 to 19 nM,"Cc1nsc(-c2ccc(C)c(NCC(=O)N3CCc4c3cccc4N3C(=O)C=CC3=O)c2)n1 [Example 79, 1-(1-((2-methyl-5-(3-methyl-1,2,4-thiadiazol-5-yl)phenyl)-glycyl)indolin-4-yl)-1H-pyrrole-2,5-dione]"

# Further lines, the compound ahead of its results:
row,Structure (SMILES),IC50
1,"Cc1noc(-c2ccc(F)c(NCC(=O)N3CCc4c3cccc4C(C)(C)O)c2)n1 [Example 53, 2-((2-fluoro-5-(3-methyl-1,2,4-oxadiazol-5-yl)phenyl)amino)-1-(4-(2-hydroxypropan-2-yl)-indolin-1-yl)ethan-1-one]",20 to 39 nM
2,"CCc1nsc(-c2ccc(F)c(NCC(=O)N3CCc4c(N5CC(O)C5)cccc43)c2)n1 [Example 56, 2-((5-(3-ethyl-1,2,4-thiadiazol-5-yl)-2-fluorophenyl)amino)-1-(4-(3-hydroxyazetidin-1-yl)indolin-1-yl)ethan-1-one]",0.1 to 19 nM
3,"COC(=O)C1CN(C(=O)CNc2cc(-c3nc(C)ns3)ccc2C)c2ccccc21 (stereo not drawn) [Example 57, methyl 1-((2-methyl-5-(3-methyl-1,2,4-thiadiazol-5-yl)-phenyl)glycyl)indoline-3-carboxylate]",> 100 nM
4,"Cc1nsc(-c2ccc(C)c(NCC(=O)N3CC(CCO)c4ccccc43)c2)n1 (stereo not drawn) [Example 58, 1-(3-(2-hydroxyethyl)indolin-1-yl)-2-((2-methyl-5-(3-methyl-1,2,4-thiadiazol-5-yl)phenyl)amino)ethan-1-one]",> 100 nM
5,"CNC(=O)C1CN(C(=O)CNc2cc(-c3nc(C)ns3)ccc2C)c2ccccc21 (stereo not drawn) [Example 59, N-methyl-1-((2-methyl-5-(3-methyl-1,2,4-thiadiazol-5-yl)phenyl)glycyl) indoline-3-carboxamide]",> 100 nM
6,"Cc1noc(-c2ccc(F)c(NCC(=O)N3CCc4c3cccc4C(C)(O)CO)c2)n1 (stereo not drawn) [Example 60, 1-(4-(1,2-dihydroxypropan-2-yl)indolin-1-yl)-2-((2-fluoro-5-(3-methyl-1,2,4-oxadiazol-5-yl)phenyl)amino)ethan-1-one]",40 to 69 nM
7,"Cc1ccc(-c2nc(C(F)F)ns2)cc1NCC(=O)N1CCc2c1cccc2C(C)(O)CO (stereo not drawn) [Example 61, 2-((5-(3-(difluoromethyl)-1,2,4-thiadiazol-5-yl)-2-methylphenyl)amino)-1-(4-(1,2-dihydroxypropan-2-yl)indolin-1-yl)ethan-1-one]",0.1 to 19 nM
8,"CCc1nsc(-c2ccc(C)c(NCC(=O)N3CCc4c(N5CC(O)C5)cccc43)c2)n1 [Example 66, 2-((5-(3-ethyl-1,2,4-thiadiazol-5-yl)-2-methylphenyl)amino)-1-(4-(3-hydroxyazetidin-1-yl)indolin-1-yl)ethan-1-one]",20 to 39 nM
9,"Cc1nsc(-c2ccc(C)c(NCC(=O)N3CCc4c3cccc4C(C)(C)OC(=O)C(O)CO)c2)n1 (stereo not drawn) [Example 67, 2-(1-((2-methyl-5-(3-methyl-1,2,4-thiadiazol-5-yl)phenyl)glycyl)indolin-4-yl)propan-2-yl 2,3-dihydroxy-propanoate]",20 to 39 nM
10,"CCc1nsc(-c2ccc(F)c(NCC(=O)N3CCc4c(N5CCC(O)C5)cccc43)c2)n1 (stereo not drawn) [Example 71, 2-((5-(3-ethyl-1,2,4-thiadiazol-5-yl)-2-fluorophenyl)amino)-1-(4-(3-hydroxypyrrolidin-1-yl)indolin-1-yl)ethan-1-one]",0.1 to 19 nM
11,"CCc1nsc(-c2ccc(C)c(NCC(=O)N3CCc4c(N5CCNCC5)cccc43)c2)n1 [Example 72, 2-((5-(3-ethyl-1,2,4-thiadiazol-5-yl)-2-methylphenyl)amino)-1-(4-(piperazin-1-yl)indolin-1-yl)ethan-1-one]",20 to 39 nM
12,"Cc1nsc(-c2ccc(C)c(NCC(=O)N3CCc4c3cccc4N(S(C)(=O)=O)S(C)(=O)=O)c2)n1 [Example 78, N-(1-((2-methyl-5-(3-methyl-1,2,4-thiadiazol-5-yl)phenyl)glycyl)indolin-4-yl)-N-(methylsulfonyl) methanesulfonamide]",0.1 to 19 nM
13,"Cc1nsc(-c2ccc(C)c(NCC(=O)N3CCc4c3cccc4N3C(=O)CC(N)C3=O)c2)n1 (stereo not drawn) [Example 80, 3-amino-1-(1-((2-methyl-5-(3-methyl-1,2,4-thiadiazol-5-yl)phenyl)glycyl)indolin-4-yl) pyrrolidine-2,5-dione]",0.1 to 19 nM

# — US20260209215A1, “GLYCINE DERIVATIVES WITH P2X4 RECEPTOR-BLOCKING ACTIVITY AS DIAGNOSTICS AND FOR THE TREATMENT OF PAIN, INFLAMMATION, CANCER, AND OTHER P2X4 RECEPTOR-RELATED DISEASES” (RHEINISCHE-FRIEDRICH-WILHELMS-UNIVERSITÄT BONN, priority 2022, published 2026)
